The test system of assay [1] is HCV genotype 1a (H77 strain) replicon in HUH-7 cells. Briefly: HCV replicon luciferase reporter assay, genotype 1a. It is filed as cell-based. Particulars: Hepatitis C virus, 72 h, HCV genotype 1a replicon, 3 days incubation, Renilla luciferase. The text has this:
(§1) An HCV replicon whole cell system was established as described by Lohmann V, Korner F, Koch J, Herian U, Theilmann L, Bartenschlager R., Science 285(5424):110-3 (1999) and modified to introduce a luciferase reporter, as first described by Krieger et al (Krieger N, Lohmann V, and Bartenschlager R, J. Virol. 75(10):4614-4624 (2001)). CDNA encoding a humanized form of the Renilla luciferase gene and a linker sequence fused directly to the 3′-end of the luciferase gene were introduced into the replicon construct using an Asc1 restriction site located in core, directly upstream of the neomycin marker gene. The adaptive mutation at position 1179 (serine to isoleucine) was also introduced (Blight K J, Kolykhalov, A A, Rice, C M, Science 290(5498):1972-1974). A stable cell line constitutively expressing this HCV replicon construct was generated by first linearizing plasmid DNAs with ScaI. RNA transcripts were synthesized in vitro using the T7 MegaScript transcription kit (Ambion, Austin, Tex.) according to manufacturer's directions. In vitro transcripts of the cDNA were transfected into the human hepatoma cell line, HUH-7. […] Resulting cell lines were characterized for positive and negative strand RNA production and protein production over time.
A stable HCV replicon luciferase reporter cell line representing the genotype 1a H77 strain (Yanagi M, Purcell R H, Emerson S U, et al. Transcripts from a single full-length cDNA clone of hepatitis C virus are infectious when directly transfected into the liver of a chimpanzee. Proc Natl Acad Sci USA 1997; 94(16):8738-8743) was generated as described previously for the genotype 1b (Con1) replicon luciferase cell line. The replicon construct was modified by introducing mutations were introduced into the genes encoding the NS3 helicase domain (proline replaced by leucine at position 1496) and NS5A (serine to isoleucine at position 2204) to improve replication in cell culture.
(§2) HCV replicon luciferase assays were developed to monitor the inhibitory effects of compounds described in the disclosure on HCV genotypes 1a and 1b viral replication. HUH-7 cells, constitutively expressing the HCV replicon, were grown in Dulbecco's Modified Eagle Media (DMEM) (Gibco-BRL) containing 10% Fetal calf serum (FCS) (Sigma) and 1 mg/mL G418 (Gibco-BRL). Compounds were serially diluted 3 folds in DMSO for a twenty-point titration and subsequently transferred to sterile 384-well tissue-culture treated plates (Corning cat #3571). The plates were then seeded with 50 μL of cells at a density of 3.0×10^3 cells/well in DMEM containing 4% FCS (final DMSO concentration at 0.5%). After 3 days incubation at 37° C., cells were analyzed for Renilla Luciferase activity using the EnduRen as substrate (Promega cat #E6485). The EnduRen substrate was diluted in DMEM and then added to the plates to a final concentration of 7.5 μM. The plates were incubated for 2 hrs at 37° C. and then read immediately for 30 seconds with Viewlux Imager (PerkinElmer) using a luminescence program. To assess cytotoxicity of compounds, CC50 values were generated by multiplexing the EnduRen-containing plates with Cell Titer-Blue (Promega, cat #G8082). Cell-Titer Blue (3 μL) was added to each well and incubated for 8 hrs at 37° C. The fluorescence signal from each well was read, with an excitation wavelength at 525/10 nm and an emission wavelength of 598/10 nm, using the Viewlux Imager.
(§3) The EC50 values for compounds were calculated by using a four-parameter logistic equation: y=A+((B−A)/(1+((C/x)^D))), where A and B denotes minimal and maximal % inhibition, respectively, C is the EC50, D is the hill slope and x represents compound concentration.

Assay [2] deals with HCV genotype 1b (Con1) replicon in HUH-7 cells. Briefly: HCV replicon luciferase reporter assay, genotype 1b. It is filed as cell-based. The following applies: Hepatitis C virus, 72 h, HCV genotype 1b replicon, 3 days incubation, Renilla luciferase.
Description: as §1, with “time. […]” for “time.”
as §2, §3
Background: In antiviral work, replicon cells carry a viral genome segment that copies itself.

One may read the EC50 as the concentration needed to bring the measured effect to its halfway point. On to `COc1cnc(O[C@@H]2C[C@H]3C(=O)N[C@]4(C(=O)NS(=O)(=O)C5CC5)C[C@H]4/C=C\[C@H](C)CCC[C@@H](C)[C@H](NC(=O)OC(C)(C)C(F)(F)F)C(=O)N3C2)c2ccccc12` [Compound 3, 1,1,1-trifluoro-2-methylpropan-2-yl (2R,6S,7R,11R,13aS,14aR,16aS,Z)-14a-(cyclopropylsulfonylcarbamoyl)-2-(4-methoxyisoquinolin-1-yloxy)-7,11-dimethyl-5,16-dioxo-1,2,3,5,6,7,8,9,10,11,13a,14,14a,15,16,16a-hexadecahydrocyclopropa[e]pyrrolo[1,2-a][1,4]diazacyclopentadecin-6-ylcarbamate], for which the EC50 in assay [1] (range classes) and in assay [2] (range classes) was 0.2 to 1 nM each time.

On to `COc1cnc(O[C@@H]2C[C@H]3C(=O)N[C@]4(C(=O)NS(=O)(=O)C5CC5)C[C@H]4/C=C\[C@@H](C)CCC[C@@H](C)[C@H](NC(=O)OC(C)(C)C(F)(F)F)C(=O)N3C2)c2ccccc12` [Compound 4, 1,1,1-trifluoro-2-methylpropan-2-yl (2R,6S,7R,11S,13aS,14aR,16aS,Z)-14a-(cyclopropylsulfonylcarbamoyl)-2-(4-methoxyisoquinolin-1-yloxy)-7,11-dimethyl-5,16-dioxo-1,2,3,5,6,7,8,9,10,11,13a,14,14a,15,16,16a-hexadecahydrocyclopropa[e]pyrrolo[1,2-a][1,4]diazacyclopentadecin-6-ylcarbamate], for which the EC50 came out at 4.9 nM in assay [1] (numeric values) and 2.8 nM in assay [2] (numeric values).

As for `COc1cnc(O[C@@H]2C[C@H]3C(=O)N[C@]4(C(=O)NS(=O)(=O)C5CC5)C[C@H]4/C=C\[C@H](C)CCC[C@@H](C)[C@H](NC(=O)OC(C)(C)C)C(=O)N3C2)c2cccc(Cl)c12` [Compound 5, tert-butyl (2R,6S,7R,11R,13aS,14aR,16aS,Z)-2-(5-chloro-4-methoxyisoquinolin-1-yloxy)-14a-(cyclopropylsulfonylcarbamoyl)-7,11-dimethyl-5,16-dioxo-1,2,3,5,6,7,8,9,10,11,13a,14,14a,15,16,16a-hexadecahydrocyclopropa[e]pyrrolo[1,2-a][1,4]diazacyclopentadecin-6-ylcarbamate], the results for the EC50 in assay [1] (numeric values) and in assay [2] (numeric values) were 0.41 nM and 1.2 nM, respectively.

In the case of `COc1cnc(O[C@@H]2C[C@H]3C(=O)N[C@]4(C(=O)NS(=O)(=O)C5CC5)C[C@H]4/C=C\[C@@H](C)CCC[C@@H](C)[C@H](NC(=O)OC(C)(C)C)C(=O)N3C2)c2cccc(Cl)c12` [Compound 6, tert-butyl (2R,6S,7R,11S,13aS,14aR,16aS,Z)-2-(5-chloro-4-methoxyisoquinolin-1-yloxy)-14a-(cyclopropylsulfonylcarbamoyl)-7,11-dimethyl-5,16-dioxo-1,2,3,5,6,7,8,9,10,11,13a,14,14a,15,16,16a-hexadecahydrocyclopropa[e]pyrrolo[1,2-a][1,4]diazacyclopentadecin-6-ylcarbamate], the values for the EC50 in assay [1] (range classes) and in assay [2] (range classes) were 1.01 to 2 nM and 2.01 to 5 nM, respectively.

Consider `COc1cnc(O[C@@H]2C[C@H]3C(=O)N[C@]4(C(=O)NS(=O)(=O)C5CC5)C[C@H]4/C=C\[C@H](C)CCC[C@@H](C)[C@H](NC(=O)OC(C)(C)C(F)(F)F)C(=O)N3C2)c2cccc(Cl)c12` [Compound 7, 1,1,1-trifluoro-2-methylpropan-2-yl (2R,6S,7R,11R,13aS,14aR,16aS,Z)-2-(5-chloro-4-methoxyisoquinolin-1-yloxy)-14a-(cyclopropylsulfonylcarbamoyl)-7,11-dimethyl-5,16-dioxo-1,2,3,5,6,7,8,9,10,11,13a,14,14a,15,16,16a-hexadecahydrocyclopropa[e]pyrrolo[1,2-a][1,4]diazacyclopentadecin-6-ylcarbamate], for which the EC50 lay in the range of 1.01 to 2 nM in assay [1] (range classes) and 0.2 to 1 nM in assay [2] (range classes).

With `COc1cnc(O[C@@H]2C[C@H]3C(=O)N[C@]4(C(=O)NS(=O)(=O)C5CC5)C[C@H]4/C=C\[C@@H](C)CCC[C@@H](C)[C@H](NC(=O)OC(C)(C)C(F)(F)F)C(=O)N3C2)c2cccc(Cl)c12` [Compound 8, 1,1,1-trifluoro-2-methylpropan-2-yl (2R,6S,7R,11S,13aS,14aR,16aS,Z)-2-(5-chloro-4-methoxyisoquinolin-1-yloxy)-14a-(cyclopropylsulfonylcarbamoyl)-7,11-dimethyl-5,16-dioxo-1,2,3,5,6,7,8,9,10,11,13a,14,14a,15,16,16a-hexadecahydrocyclopropa[e]pyrrolo[1,2-a][1,4]diazacyclopentadecin-6-ylcarbamate], the EC50 in assay [1] (range classes) lay within 2.01 to 5 nM; in assay [2] (range classes), 1.01 to 2 nM.

As to `COc1ccc2c(O[C@@H]3C[C@H]4C(=O)N[C@]5(C(=O)NS(=O)(=O)C6CC6)C[C@H]5/C=C\[C@H](C)CCC[C@@H](C)[C@H](NC(=O)OC(C)(C)C(F)(F)F)C(=O)N4C3)nccc2c1` [Compound 9, 1,1,1-trifluoro-2-methylpropan-2-yl (2R,6S,7R,11R,13aS,14aR,16aS,Z)-14a-(cyclopropylsulfonylcarbamoyl)-2-(6-methoxyisoquinolin-1-yloxy)-7,11-dimethyl-5,16-dioxo-1,2,3,5,6,7,8,9,10,11,13a,14,14a,15,16,16a-hexadecahydrocyclopropa[e]pyrrolo[1,2-a][1,4]diazacyclopentadecin-6-ylcarbamate], the EC50 came out at 1 nM in assay [1] (numeric values) and 0.36 nM in assay [2] (numeric values).

With `COc1ccc2c(O[C@@H]3C[C@H]4C(=O)N[C@]5(C(=O)NS(=O)(=O)C6(CF)CC6)C[C@H]5/C=C\[C@H](C)CCC[C@@H](C)[C@H](NC(=O)OC(C)(C)C)C(=O)N4C3)ncc(OC)c2c1` [Compound 11, tert-butyl (2R,6S,7R,11R,13aS,14aR,16aS,Z)-2-(4,6-dimethoxyisoquinolin-1-yloxy)-14a-(1-(fluoromethyl)cyclopropylsulfonylcarbamoyl)-7,11-dimethyl-5,16-dioxo-1,2,3,5,6,7,8,9,10,11,13a,14,14a,15,16,16a-hexadecahydrocyclopropa[e]pyrrolo[1,2-a][1,4]diazacyclopentadecin-6-ylcarbamate], the EC50 in assay [1] (range classes) was 2.01 to 5 nM; in assay [2] (range classes), 0.2 to 1 nM.

In the case of `COc1ccc2c(O[C@@H]3C[C@H]4C(=O)N[C@]5(C(=O)NS(=O)(=O)C6(CF)CC6)C[C@H]5/C=C\[C@H](C)CCC[C@@H](C)[C@H](NC(=O)OC(C)(C)C(F)(F)F)C(=O)N4C3)ncc(OC)c2c1` [Compound 12], the EC50 lay within 2.01 to 5 nM in assay [1] (range classes) and 1.01 to 2 nM in assay [2] (range classes).

For `COc1ccc2c(O[C@@H]3C[C@H]4C(=O)N[C@]5(C(=O)NS(=O)(=O)C6(CF)CC6)C[C@H]5/C=C\[C@@H](C)CCC[C@@H](C)[C@H](NC(=O)OC(C)(C)C(F)(F)F)C(=O)N4C3)ncc(OC)c2c1` [Compound 13], the concentration giving a half-maximal response (EC50) in assay [1] (range classes) was in the range of 5.01 to 68 nM; in assay [2] (range classes), 2.01 to 5 nM.

These data come from patent US8691757B2 (Bristol-Myers Squibb Company, priority 2011, dated 2014).
